Data on 27 compounds can be found in patent US9708316B2 (BRISTOL-MYERS SQUIBB COMPANY, priority 2014, dated 2017).

Molecules are shown by their SMILES.

The target of one experiment is T1, HIS-TGFβR1 T204D (Homo sapiens, UniProt P36897, T204D).
T1 sequence (P36897 34-503 T204D): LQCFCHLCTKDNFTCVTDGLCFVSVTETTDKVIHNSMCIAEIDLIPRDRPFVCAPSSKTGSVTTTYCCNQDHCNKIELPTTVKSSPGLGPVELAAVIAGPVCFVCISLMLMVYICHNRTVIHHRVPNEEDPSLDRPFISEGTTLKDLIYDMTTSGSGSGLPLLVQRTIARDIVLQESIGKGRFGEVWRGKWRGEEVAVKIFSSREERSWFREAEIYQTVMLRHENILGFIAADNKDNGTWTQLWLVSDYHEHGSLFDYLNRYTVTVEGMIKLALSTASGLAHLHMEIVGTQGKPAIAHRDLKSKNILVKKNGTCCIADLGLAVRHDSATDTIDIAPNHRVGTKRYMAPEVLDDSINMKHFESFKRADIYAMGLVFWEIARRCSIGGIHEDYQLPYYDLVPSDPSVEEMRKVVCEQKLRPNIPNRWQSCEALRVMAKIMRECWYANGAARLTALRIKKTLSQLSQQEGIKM
The experiment in a line: HTRF probe-displacement assay, HIS-TGFβR1 T204D. The conditions noted are these: read-out: TGFβR1 (μM) IC50. Type of experiment: binding. (In general: In TR-FRET formats the signal depends on donor and acceptor labels being close together.)

In another experiment the target is HIS-TGFβR2 WT (Homo sapiens, UniProt P37173). Kind of experiment: HTRF probe-displacement assay, HIS-TGFβR2 WT. It is filed as binding.
HIS-TGFβR2 WT, sequence (P37173 23-567): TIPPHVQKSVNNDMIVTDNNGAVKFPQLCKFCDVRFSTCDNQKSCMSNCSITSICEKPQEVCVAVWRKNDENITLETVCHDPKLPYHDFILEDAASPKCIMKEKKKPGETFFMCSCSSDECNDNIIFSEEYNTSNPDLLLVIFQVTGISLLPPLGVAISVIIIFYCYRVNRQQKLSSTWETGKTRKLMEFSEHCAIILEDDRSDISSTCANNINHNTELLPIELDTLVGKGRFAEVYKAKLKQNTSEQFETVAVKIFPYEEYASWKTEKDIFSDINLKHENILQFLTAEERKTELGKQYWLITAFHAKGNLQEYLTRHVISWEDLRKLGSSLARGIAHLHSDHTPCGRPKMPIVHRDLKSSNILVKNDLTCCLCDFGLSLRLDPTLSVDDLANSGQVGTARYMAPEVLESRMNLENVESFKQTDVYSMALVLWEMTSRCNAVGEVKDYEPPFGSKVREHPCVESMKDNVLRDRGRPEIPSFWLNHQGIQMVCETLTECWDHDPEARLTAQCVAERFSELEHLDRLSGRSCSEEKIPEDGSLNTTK

A word on the IC50: it is the concentration needed to halve the response being measured. In the case of `COc1cc(-c2c(-c3ccnc(NC(C)=O)c3)[nH]c3cccnc23)ccn1` [Example 196, N-(4-(3-(2-Methoxypyridin-4-yl)-1H-pyrrolo[3,2-b]pyridin-2-yl)pyridin-2-yl)acetamide], the IC50 at HIS-TGFβR1 T204D is 0.0951 µM; on HIS-TGFβR2 WT it was 1.21 µM.

Turning to `COc1ccc(-c2c(-c3ccnc(NC(C)=O)c3)[nH]c3cc(CN)cnc23)cn1` [Example 79, N-(4-(6-(Aminomethyl)-3-(6-methoxypyridin-3-yl)-1H-pyrrolo[3,2-b]pyridin-2-yl)pyridin-2-yl)acetamide], the IC50 was 0.007 µM at HIS-TGFβR1 T204D and 0.16 µM at HIS-TGFβR2 WT.

With `CC(=O)Nc1cc(-c2[nH]c3cccnc3c2-c2nccs2)ccn1` [Example 205, N-(4-(3-(Thiazol-2-yl)-1H-pyrrolo[3,2-b]pyridin-2-yl)pyridin-2-yl)acetamide], the figures for the IC50 on HIS-TGFβR1 T204D and on HIS-TGFβR2 WT were 0.0029 µM and 0.147 µM, respectively.

As to `CC(=O)Nc1cc(-c2[nH]c3c(C(C)(C)O)ccnc3c2-c2cccc(C(F)F)n2)ccn1` [Example 154, N-(4-{3-[6-(Difluoromethyl)pyridin-2-yl]-7-(2-hydroxypropan-2-yl)-1H-pyrrolo[3,2-b]pyridin-2-yl}pyridin-2-yl)acetamide], the IC50 on HIS-TGFβR1 T204D came out at 0.001 µM; at HIS-TGFβR2 WT, 1.77 µM.

Turning to `COc1cnc(-c2c(-c3ccnc(NC(C)=O)c3)[nH]c3cccnc23)cn1` [Example 194, N-(4-(3-(5-Methoxypyrazin-2-yl)-1H-pyrrolo[3,2-b]pyridin-2-yl)pyridin-2-yl)acetamide], the concentration for half-maximal inhibition (IC50) amounted to 0.005 µM at HIS-TGFβR1 T204D and 4.31 µM on HIS-TGFβR2 WT.

Take `[2H]C([2H])([2H])Oc1ccc(-c2c(-c3ccnc(NC(C)=O)c3)[nH]c3cc(Cl)cnc23)nc1` [Example 105, N-(4-(6-Chloro-3-(5-(methoxy-d3)pyridin-2-yl)-1H-pyrrolo[3,2-b]pyridin-2-yl)pyridin-2-yl)acetamide]: the figures for the IC50 on HIS-TGFβR1 T204D and at HIS-TGFβR2 WT were 0.005 µM and above 15 µM, respectively.

On to `CC(=O)Nc1cc(-c2[nH]c3c(CN4CC(F)(F)C4)ccnc3c2-c2cccc(C(F)F)n2)ccn1` [Example 152, N-(4-{7-[(3,3-Difluoroazetidin-1-yl)methyl]-3-[6-(difluoromethyl)pyridin-2-yl]-1H-pyrrolo[3,2-b]pyridin-2-yl}pyridin-2-yl)acetamide], for which the IC50 at HIS-TGFβR1 T204D was 0.002 µM; on HIS-TGFβR2 WT, 4.09 µM.

Turning to `CC(=O)Nc1cc(-c2[nH]c3c(-c4c(C)noc4C)ccnc3c2-c2cccc(C(F)F)n2)ccn1` [Example 130, N-(4-{3-[6-(Difluoromethyl)pyridin-2-yl]-7-(dimethyl-1,2-oxazol-4-yl)-1H-pyrrolo[3,2-b]pyridin-2-yl}pyridin-2-yl)acetamide], the IC50 on HIS-TGFβR1 T204D was 0.004 µM; on HIS-TGFβR2 WT, above 15 µM.

Take `COc1ccc(-c2c(-c3ccnc(NC(C)=O)c3)[nH]c3c(CN)ccnc23)cn1` [Example 81, N-(4-(7-(Aminomethyl)-3-(6-methoxypyridin-3-yl)-1H-pyrrolo[3,2-b]pyridin-2-yl)pyridin-2-yl)acetamide]: the IC50 on HIS-TGFβR1 T204D came to 0.014 µM; on HIS-TGFβR2 WT, 0.26 µM.

For `COc1ccc(-c2c(-c3ccnc(NC(C)=O)c3)[nH]c3cc(N4CCCC4)cnc23)nc1` [Example 167, N-(4-(3-(5-Methoxypyridin-2-yl)-6-(pyrrolidin-1-yl)-1H-pyrrolo[3,2-b]pyridin-2-yl)pyridin-2-yl)acetamide], the IC50 was 0.0171 µM at HIS-TGFβR1 T204D and above 15 µM at HIS-TGFβR2 WT.

For the compound `CC(=O)Nc1cc(-c2[nH]c3cccnc3c2-c2ncc(C)s2)ccn1` [Example 202, N-(4-(3-(5-Methylthiazol-2-yl)-1H-pyrrolo[3,2-b]pyridin-2-yl)pyridin-2-yl)acetamide], the IC50 at HIS-TGFβR1 T204D worked out at 0.0015 µM; on HIS-TGFβR2 WT, 0.225 µM.

On to `CC(=O)Nc1cc(-c2[nH]c3cc(C)cnc3c2-c2nc(C#N)cs2)ccn1` [Example 224, N-(4-(3-(4-Cyanothiazol-2-yl)-6-methyl-1H-pyrrolo[3,2-b]pyridin-2-yl)pyridin-2-yl)acetamide], for which the values for the IC50 on HIS-TGFβR1 T204D and at HIS-TGFβR2 WT were 0.0012 µM and 0.544 µM, respectively.

`CC(=O)Nc1cc(-c2[nH]c3cc(Cl)cnc3c2-c2cccc(NCCO)n2)ccn1` [Example 68, N-[4-(6-Chloro-3-{6-[(2-hydroxyethyl)amino]pyridin-2-yl}-1H-pyrrolo[3,2-b]pyridin-2-yl)pyridin-2-yl]acetamide]: the half-maximal inhibitory concentration (IC50) on HIS-TGFβR1 T204D was 0.96 µM; at HIS-TGFβR2 WT, above 15 µM.

As for `CC(=O)Nc1cc(-c2[nH]c3c(-c4ccnn4C)ccnc3c2-c2cccc(C(F)F)n2)ccn1` [Example 129, N-(4-{3-[6-(Difluoromethyl)pyridin-2-yl]-7-(1-methyl-1H-pyrazol-5-yl)-1H-pyrrolo[3,2-b]pyridin-2-yl}pyridin-2-yl)acetamide], the IC50 on HIS-TGFβR1 T204D is 0.007 µM; on HIS-TGFβR2 WT, above 15 µM.

Regarding `CC(=O)Nc1cc(-c2[nH]c3c(C4CCOCC4)ccnc3c2-c2cccc(C)n2)ccn1` [Example 136, N-{4-[3-(6-Methylpyridin-2-yl)-7-(oxan-4-yl)-1H-pyrrolo[3,2-b]pyridin-2-yl]pyridin-2-yl}acetamide], the IC50 on HIS-TGFβR1 T204D was 0.006 µM; on HIS-TGFβR2 WT it was above 15 µM.

In the case of `COc1ccc(-c2c(-c3ccnc(NC(=O)CN4CCN(C)CC4)c3)[nH]c3cc(Cl)cnc23)nc1C` [Example 238, N-(4-(6-Chloro-3-(5-methoxy-6-methylpyridin-2-yl)-1H-pyrrolo[3,2-b]pyridin-2-yl)pyridin-2-yl)-2-(4-methylpiperazin-1-yl)acetamide], the IC50 was 0.0882 µM at HIS-TGFβR1 T204D and above 15 µM on HIS-TGFβR2 WT.

For the compound `COc1ccc(-c2c(-c3ccnc(NC(=O)CN4CCS(=O)(=O)CC4)c3)[nH]c3cc(OC)cnc23)nc1` [Example 118, 2-(1,1-Dioxidothiomorpholino)-N-{4-[6-methoxy-3-(5-methoxypyridin-2-yl)-1H-pyrrolo[3,2-b]pyridin-2-yl]pyridin-2-yl}acetamide], the values for the IC50 at HIS-TGFβR1 T204D and on HIS-TGFβR2 WT were 0.002 µM and above 15 µM, respectively.

`COc1ccc(-c2c(-c3ccnc(NC(C)=O)c3)[nH]c3cc(NC(C)=O)cnc23)nc1` [Example 157, N-(4-(6-Acetamido-3-(5-methoxypyridin-2-yl)-1H-pyrrolo[3,2-b]pyridin-2-yl)pyridin-2-yl)acetamide]: the IC50 was 0.0013 µM on HIS-TGFβR1 T204D and above 15 µM on HIS-TGFβR2 WT.

On to `COc1ccc(-c2c(-c3ccnc(NC(C)=O)c3)[nH]c3cc(S(C)(=O)=O)cnc23)nc1` [Example 91, N-{4-[6-Methanesulfonyl-3-(5-methoxypyridin-2-yl)-1H-pyrrolo[3,2-b]pyridin-2-yl]pyridin-2-yl}acetamide], for which the IC50 is 0.019 µM at HIS-TGFβR1 T204D and above 15 µM on HIS-TGFβR2 WT.

Take `COCC(C)Oc1cnc2c(-c3ccc(OC)cn3)c(-c3ccnc(NC(C)=O)c3)[nH]c2c1` (stereo not drawn) [Example 97, N-(4-(6-((1-Methoxypropan-2-yl)oxy)-3-(5-methoxypyridin-2-yl)-1H-pyrrolo[3,2-b]pyridin-2-yl)pyridin-2-yl)acetamide]: the IC50 is 0.001 µM on HIS-TGFβR1 T204D and above 15 µM on HIS-TGFβR2 WT.

For `COc1ccc(-c2c(-c3ccnc(NC(C)=O)c3)[nH]c3c(C(=O)NC(CO)CO)ccnc23)cn1` [Example 59, N-(1,3-Dihydroxypropan-2-yl)-2-(2-acetamidopyridin-4-yl)-3-(6-methoxypyridin-3-yl)-1H-pyrrolo[3,2-b]pyridine-7-carboxamide], the IC50 at HIS-TGFβR1 T204D came out at 0.021 µM; at HIS-TGFβR2 WT, 6.37 µM.

In the case of `CC(=O)Nc1cc(-c2[nH]c3cccnc3c2-c2cccc(OC(F)F)n2)ccn1` [Example 174, N-(4-(3-(6-(Difluoromethoxy)pyridin-2-yl)-1H-pyrrolo[3,2-b]pyridin-2-yl)pyridin-2-yl)acetamide], the figures for the IC50 on HIS-TGFβR1 T204D and at HIS-TGFβR2 WT were 0.0034 µM and above 15 µM, respectively.

Consider `COc1cccc(-c2c(-c3ccnc(NC(C)=O)c3)[nH]c3cc(Cl)cnc23)n1` [Example 65, N-{4-[6-Chloro-3-(6-methoxypyridin-2-yl)-1H-pyrrolo[3,2-b]pyridin-2-yl]pyridin-2-yl}acetamide], for which the IC50 at HIS-TGFβR1 T204D was 0.01 µM; at HIS-TGFβR2 WT it was above 15 µM.

Consider `COc1ccnc2c(-c3cccc(C(F)F)n3)c(-c3ccnc(NC(C)=O)c3)[nH]c12` [Example 267, N-(4-(3-(6-(Difluoromethyl)pyridin-2-yl)-7-methoxy-1H-pyrrolo[3,2-b]pyridin-2-yl)pyridin-2-yl)acetamide], for which the IC50 was 0.002 µM at HIS-TGFβR1 T204D and above 15 µM on HIS-TGFβR2 WT.

As for `COc1ccc(-c2c(-c3ccnc(NC(C)=O)c3)[nH]c3cc(-c4c(C)noc4C)cnc23)nc1` [Example 93, N-{4-[6-(Dimethyl-1,2-oxazol-4-yl)-3-(5-methoxypyridin-2-yl)-1H-pyrrolo[3,2-b]pyridin-2-yl]pyridin-2-yl}acetamide], the IC50 on HIS-TGFβR1 T204D is 0.003 µM; at HIS-TGFβR2 WT, above 15 µM.

For `COc1ccc(-c2c(-c3ccnc(NC(C)=O)c3)[nH]c3cc(-c4c(C)nnn4C)cnc23)nc1` [Example 94, N-{4-[6-(Dimethyl-1H-1,2,3-triazol-5-yl)-3-(5-methoxypyridin-2-yl)-1H-pyrrolo[3,2-b]pyridin-2-yl]pyridin-2-yl}acetamide], the results for the IC50 at HIS-TGFβR1 T204D and on HIS-TGFβR2 WT were 0.004 µM and above 15 µM, respectively.

Regarding `COc1ccc(-c2c(-c3ccnc(NC(C)=O)c3)[nH]c3cc(F)cnc23)nc1` [Example 39, N-{4-[6-Fluoro-3-(5-methoxypyridin-2-yl)-1H-pyrrolo[3,2-b]pyridin-2-yl]pyridin-2-yl}acetamide], the IC50 at HIS-TGFβR1 T204D is 0.002 µM; at HIS-TGFβR2 WT, above 15 µM.
